Source: US20130267551A1, “SUBSTITUTED HYDROGENATED THIENO-PYRROLO[3,2-C]PYRIDINE, LIGANDS, A PHARMACEUTICAL COMPOSITION AND A METHOD FOR USING THE ABOVE” (ALLA CHEM, LLC, priority 2010, published 2013)
Where a name gives a salt, the structure may show the parent alone.

Key:
Serotoninergic 5-HT2A = Serotoninergic 5-HT2A (Homo sapiens, UniProt P28223); test: competitive radioligand binding, Serotoninergic 5-HT2A; settings: compound concentration of 1 μM
Procedure: (§1) Profiles of pharmacological activity of thieno-pyrrolo[3,2-c]pyridines of the general formula 1. Biological activity test of compounds of the general formula 1 was carried out in the setting of competitive radioligand binding [I. Okun, S. Tkachenko, A. Khvat, et al., Current Alzheimer Research, 7(2), 97-112 (2010)], using a wide range of therapeutic targets including G-protein coupled receptors (GPCR), ion channels and neuromediator transporters. The tested activity was determined by quantitative measurement of radio-labelled ligand displacement by tested compounds of the general formula 1 at their concentration of 1 μM.

Serotoninergic 5-HT2B = Serotoninergic 5-HT2B (Homo sapiens, UniProt P41595); test: competitive radioligand binding, Serotoninergic 5-HT2B; settings: compound concentration of 1 μM
Procedure: as §1

Serotoninergic 5-HT6 = Serotoninergic 5-HT6 (Homo sapiens, UniProt P50406); test: competitive radioligand binding, Serotoninergic 5-HT6; settings: compound concentration of 1 μM
Procedure: as §1

[1] = system: Therapeutic targets (Adrenergic, Dopaminergic, Histaminergic, Serotoninergic); test: Profiles of pharmacological activity in competitive radioligand binding (whole panel); settings: 1 μM, grades not defined
Procedure: as §1

Dopaminergic D2L = Dopaminergic D2L (Homo sapiens, UniProt P14416); test: competitive radioligand binding, Dopaminergic D2L; settings: compound concentration of 1 μM
Procedure: as §1

Adrenergic α1A = test: competitive radioligand binding, Adrenergic α1A; settings: compound concentration of 1 μM
Procedure: as §1

Histaminergic H1 = Histaminergic H1 (Homo sapiens, UniProt P35367); test: competitive radioligand binding, Histaminergic H1; settings: compound concentration of 1 μM
Procedure: as §1

Adrenergic α1D = biological target: T1, Adrenergic α1D (Homo sapiens, UniProt P25100); test: competitive radioligand binding, Adrenergic α1D; settings: compound concentration of 1 μM
T1 sequence (P25100 1-572): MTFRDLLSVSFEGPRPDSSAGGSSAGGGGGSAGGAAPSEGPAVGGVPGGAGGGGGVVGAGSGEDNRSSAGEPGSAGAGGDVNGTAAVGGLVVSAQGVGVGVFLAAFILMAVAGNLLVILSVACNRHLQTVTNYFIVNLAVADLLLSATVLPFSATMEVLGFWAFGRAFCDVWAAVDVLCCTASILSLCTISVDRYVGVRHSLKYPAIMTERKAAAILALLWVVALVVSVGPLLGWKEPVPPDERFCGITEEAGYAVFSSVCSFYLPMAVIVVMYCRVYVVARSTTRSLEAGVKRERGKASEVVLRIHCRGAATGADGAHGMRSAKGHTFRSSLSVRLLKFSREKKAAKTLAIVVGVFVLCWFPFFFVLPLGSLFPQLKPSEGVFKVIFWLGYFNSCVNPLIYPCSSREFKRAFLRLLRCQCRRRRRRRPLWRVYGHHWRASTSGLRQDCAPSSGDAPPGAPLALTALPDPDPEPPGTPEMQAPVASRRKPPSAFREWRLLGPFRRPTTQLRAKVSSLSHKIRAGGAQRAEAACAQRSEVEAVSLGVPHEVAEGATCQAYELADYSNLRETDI
Procedure: as §1

Adrenergic α2A = biological target: T2, Adrenergic α2A (Homo sapiens, UniProt P08913); test: competitive radioligand binding, Adrenergic α2A; settings: compound concentration of 1 μM
T2 sequence (P08913 1-465): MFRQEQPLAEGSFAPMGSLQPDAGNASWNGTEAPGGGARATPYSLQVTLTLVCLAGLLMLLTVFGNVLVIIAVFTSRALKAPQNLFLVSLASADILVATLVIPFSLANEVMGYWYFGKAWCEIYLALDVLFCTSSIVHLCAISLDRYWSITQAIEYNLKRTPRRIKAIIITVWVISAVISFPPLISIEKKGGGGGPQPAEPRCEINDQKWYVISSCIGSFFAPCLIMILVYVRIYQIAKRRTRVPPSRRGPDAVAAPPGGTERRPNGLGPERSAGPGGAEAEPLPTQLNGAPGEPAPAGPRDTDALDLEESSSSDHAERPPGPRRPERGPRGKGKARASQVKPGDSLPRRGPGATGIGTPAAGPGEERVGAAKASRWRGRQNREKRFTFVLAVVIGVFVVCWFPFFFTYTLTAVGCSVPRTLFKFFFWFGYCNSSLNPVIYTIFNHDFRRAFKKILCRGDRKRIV
Procedure: as §1

Dopaminergic D3 = Dopaminergic D3 (Homo sapiens, UniProt P35462); test: competitive radioligand binding, Dopaminergic D3; settings: compound concentration of 1 μM
Procedure: as §1

Serotoninergic 5-HT2C = biological target: T3, Serotoninergic 5-HT2C (Homo sapiens, UniProt P28335); test: competitive radioligand binding, Serotoninergic 5-HT2C; settings: compound concentration of 1 μM
T3 sequence (P28335 33-458): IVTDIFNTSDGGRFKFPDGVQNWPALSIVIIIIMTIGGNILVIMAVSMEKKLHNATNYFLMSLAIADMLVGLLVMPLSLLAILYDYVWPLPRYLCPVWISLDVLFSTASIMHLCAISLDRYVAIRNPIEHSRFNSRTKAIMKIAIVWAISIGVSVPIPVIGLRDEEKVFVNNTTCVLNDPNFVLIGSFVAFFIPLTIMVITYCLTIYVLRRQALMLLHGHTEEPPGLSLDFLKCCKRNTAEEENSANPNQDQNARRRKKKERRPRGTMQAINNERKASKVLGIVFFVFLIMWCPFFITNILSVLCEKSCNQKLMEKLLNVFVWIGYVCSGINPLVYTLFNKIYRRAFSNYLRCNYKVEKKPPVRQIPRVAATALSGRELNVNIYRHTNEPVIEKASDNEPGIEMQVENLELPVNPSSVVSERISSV
Procedure: as §1

Dopaminergic D2S = Dopaminergic D2S (Homo sapiens, UniProt P14416); test: competitive radioligand binding, Dopaminergic D2S; settings: compound concentration of 1 μM
Procedure: as §1

Histaminergic H3 = Histaminergic H3 (Homo sapiens, UniProt Q9Y5N1); test: competitive radioligand binding, Histaminergic H3; settings: compound concentration of 1 μM; in % (unit assumed)
Procedure: as §1

Adrenergic α1B = test: competitive radioligand binding, Adrenergic α1B; settings: compound concentration of 1 μM
Procedure: as §1

Serotoninergic 5-HT7 = Serotoninergic 5-HT7 (Homo sapiens, UniProt P34969); test: competitive radioligand binding, Serotoninergic 5-HT7; settings: compound concentration of 1 μM
Procedure: as §1

Dopaminergic D4.2 = biological target: T4, Dopaminergic D4.2 (Homo sapiens, UniProt P21917, DEL265-296); test: competitive radioligand binding, Dopaminergic D4.2; settings: compound concentration of 1 μM
T4 sequence (P21917 with tags, fused parts or gaps DEL265-296): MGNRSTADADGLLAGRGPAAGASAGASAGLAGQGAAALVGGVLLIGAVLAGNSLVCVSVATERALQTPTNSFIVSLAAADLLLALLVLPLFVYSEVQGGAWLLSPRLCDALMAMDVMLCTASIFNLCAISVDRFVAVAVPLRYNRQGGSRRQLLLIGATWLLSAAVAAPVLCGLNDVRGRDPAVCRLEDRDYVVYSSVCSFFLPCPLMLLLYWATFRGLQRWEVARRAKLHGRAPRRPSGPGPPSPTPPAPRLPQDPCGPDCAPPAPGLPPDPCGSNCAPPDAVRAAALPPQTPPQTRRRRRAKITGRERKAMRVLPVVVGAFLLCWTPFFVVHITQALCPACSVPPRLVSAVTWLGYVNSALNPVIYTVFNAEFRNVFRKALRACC
Procedure: as §1

Serotoninergic 5-HT1A = biological target: T5, Serotoninergic 5-HT1A (Homo sapiens, UniProt P08908); test: competitive radioligand binding, Serotoninergic 5-HT1A; settings: compound concentration of 1 μM
T5 sequence (P08908 1-422): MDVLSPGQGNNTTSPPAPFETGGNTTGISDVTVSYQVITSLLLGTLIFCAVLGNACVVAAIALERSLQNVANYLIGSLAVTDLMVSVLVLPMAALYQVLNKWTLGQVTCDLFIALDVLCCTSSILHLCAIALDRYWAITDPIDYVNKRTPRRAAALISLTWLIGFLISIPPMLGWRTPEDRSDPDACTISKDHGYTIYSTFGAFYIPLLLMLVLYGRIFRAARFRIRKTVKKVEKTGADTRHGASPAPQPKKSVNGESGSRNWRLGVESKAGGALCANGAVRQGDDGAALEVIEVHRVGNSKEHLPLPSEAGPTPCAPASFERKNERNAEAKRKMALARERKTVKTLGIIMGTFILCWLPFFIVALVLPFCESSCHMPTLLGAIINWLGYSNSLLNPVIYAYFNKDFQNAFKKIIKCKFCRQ
Procedure: as §1

Dopaminergic D1 = Dopaminergic D1 (Homo sapiens, UniProt P21728); test: competitive radioligand binding, Dopaminergic D1; settings: compound concentration of 1 μM
Procedure: as §1

Histaminergic H2 = Histaminergic H2 (Homo sapiens, UniProt P25021); test: competitive radioligand binding, Histaminergic H2; settings: compound concentration of 1 μM
Procedure: as §1

Serotoninergic 5-HT1B = test: competitive radioligand binding, Serotoninergic 5-HT1B; settings: compound concentration of 1 μM
Procedure: as §1

Sequence of Dopaminergic D2S (P14416 1-414 isoform P14416-2): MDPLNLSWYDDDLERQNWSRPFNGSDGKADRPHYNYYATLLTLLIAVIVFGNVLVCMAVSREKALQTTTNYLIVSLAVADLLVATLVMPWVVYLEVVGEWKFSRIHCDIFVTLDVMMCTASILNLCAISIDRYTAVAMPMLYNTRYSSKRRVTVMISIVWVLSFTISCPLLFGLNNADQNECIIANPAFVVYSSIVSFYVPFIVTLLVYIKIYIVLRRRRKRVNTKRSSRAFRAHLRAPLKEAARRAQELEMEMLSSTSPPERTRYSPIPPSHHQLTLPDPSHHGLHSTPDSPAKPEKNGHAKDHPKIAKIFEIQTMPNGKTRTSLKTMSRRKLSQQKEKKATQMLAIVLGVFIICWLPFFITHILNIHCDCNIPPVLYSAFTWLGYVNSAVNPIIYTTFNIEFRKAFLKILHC
Sequence of Serotoninergic 5-HT6 (P50406 whole entry): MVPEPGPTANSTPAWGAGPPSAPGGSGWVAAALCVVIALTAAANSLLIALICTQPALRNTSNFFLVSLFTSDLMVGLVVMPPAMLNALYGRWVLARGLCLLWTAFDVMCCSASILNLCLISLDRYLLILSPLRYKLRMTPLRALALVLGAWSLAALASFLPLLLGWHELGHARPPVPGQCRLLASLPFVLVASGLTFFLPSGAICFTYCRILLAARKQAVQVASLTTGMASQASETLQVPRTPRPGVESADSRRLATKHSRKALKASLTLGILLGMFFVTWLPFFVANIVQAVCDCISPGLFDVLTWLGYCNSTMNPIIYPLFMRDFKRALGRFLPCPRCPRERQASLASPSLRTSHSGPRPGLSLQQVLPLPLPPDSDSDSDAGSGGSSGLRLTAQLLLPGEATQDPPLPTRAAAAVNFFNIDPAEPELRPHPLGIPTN
Sequence of Histaminergic H2 (P25021 whole entry): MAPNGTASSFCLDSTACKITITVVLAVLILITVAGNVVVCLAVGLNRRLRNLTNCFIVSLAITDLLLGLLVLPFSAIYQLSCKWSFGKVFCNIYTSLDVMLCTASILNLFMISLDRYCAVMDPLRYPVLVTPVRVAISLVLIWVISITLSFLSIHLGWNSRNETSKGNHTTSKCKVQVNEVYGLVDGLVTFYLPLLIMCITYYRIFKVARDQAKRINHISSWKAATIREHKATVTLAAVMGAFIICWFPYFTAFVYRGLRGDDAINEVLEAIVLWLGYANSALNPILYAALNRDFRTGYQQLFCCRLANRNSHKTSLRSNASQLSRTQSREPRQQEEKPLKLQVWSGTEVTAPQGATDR
Sequence of Dopaminergic D3 (P35462 whole entry): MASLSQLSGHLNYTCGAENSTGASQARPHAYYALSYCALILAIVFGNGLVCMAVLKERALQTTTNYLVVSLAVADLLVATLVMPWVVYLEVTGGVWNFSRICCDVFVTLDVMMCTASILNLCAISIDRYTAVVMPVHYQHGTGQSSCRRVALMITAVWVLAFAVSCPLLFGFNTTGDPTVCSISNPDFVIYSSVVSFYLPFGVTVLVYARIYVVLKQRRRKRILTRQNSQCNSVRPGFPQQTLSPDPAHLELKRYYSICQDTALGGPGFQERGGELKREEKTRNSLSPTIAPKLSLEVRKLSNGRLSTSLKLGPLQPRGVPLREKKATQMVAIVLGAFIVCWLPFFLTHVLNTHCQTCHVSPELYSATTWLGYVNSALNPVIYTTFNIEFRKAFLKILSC
Sequence of Dopaminergic D2L (P14416 whole entry): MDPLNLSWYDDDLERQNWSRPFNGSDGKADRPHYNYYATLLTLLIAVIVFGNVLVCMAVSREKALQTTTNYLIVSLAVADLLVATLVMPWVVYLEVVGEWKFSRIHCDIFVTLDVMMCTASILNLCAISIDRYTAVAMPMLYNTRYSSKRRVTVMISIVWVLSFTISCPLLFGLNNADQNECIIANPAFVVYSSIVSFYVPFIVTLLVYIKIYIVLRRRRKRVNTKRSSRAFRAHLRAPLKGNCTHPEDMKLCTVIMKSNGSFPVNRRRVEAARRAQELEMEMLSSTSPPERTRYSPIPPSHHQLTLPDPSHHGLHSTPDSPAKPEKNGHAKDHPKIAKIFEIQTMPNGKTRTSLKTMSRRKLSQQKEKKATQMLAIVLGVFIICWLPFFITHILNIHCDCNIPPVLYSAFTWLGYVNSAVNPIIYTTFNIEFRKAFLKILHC
Sequence of Dopaminergic D1 (P21728 whole entry): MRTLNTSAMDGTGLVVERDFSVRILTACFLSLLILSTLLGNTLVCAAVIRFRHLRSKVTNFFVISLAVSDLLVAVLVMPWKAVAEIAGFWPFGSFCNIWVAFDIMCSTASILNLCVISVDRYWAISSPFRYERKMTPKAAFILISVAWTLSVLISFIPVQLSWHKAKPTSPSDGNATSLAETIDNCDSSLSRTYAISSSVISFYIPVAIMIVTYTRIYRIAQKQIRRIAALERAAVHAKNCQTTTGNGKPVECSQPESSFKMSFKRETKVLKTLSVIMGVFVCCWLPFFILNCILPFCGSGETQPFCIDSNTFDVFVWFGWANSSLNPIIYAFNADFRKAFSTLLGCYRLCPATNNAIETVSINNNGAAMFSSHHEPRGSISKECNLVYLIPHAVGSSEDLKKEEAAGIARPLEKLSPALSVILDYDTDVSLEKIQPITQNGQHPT
Sequence of Serotoninergic 5-HT7 (P34969 whole entry): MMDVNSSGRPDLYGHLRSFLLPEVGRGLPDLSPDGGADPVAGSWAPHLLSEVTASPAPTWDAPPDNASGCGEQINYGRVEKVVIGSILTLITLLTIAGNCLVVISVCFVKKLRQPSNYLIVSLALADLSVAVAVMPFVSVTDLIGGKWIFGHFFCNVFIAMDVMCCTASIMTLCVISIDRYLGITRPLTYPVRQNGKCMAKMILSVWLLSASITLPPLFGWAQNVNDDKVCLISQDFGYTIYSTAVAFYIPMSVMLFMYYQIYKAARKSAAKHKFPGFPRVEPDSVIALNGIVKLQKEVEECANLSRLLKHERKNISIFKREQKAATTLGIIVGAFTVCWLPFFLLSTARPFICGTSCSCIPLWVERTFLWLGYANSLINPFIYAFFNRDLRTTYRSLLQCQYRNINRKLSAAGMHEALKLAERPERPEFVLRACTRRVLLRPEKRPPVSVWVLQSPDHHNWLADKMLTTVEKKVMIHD
Sequence of Histaminergic H3 (Q9Y5N1 whole entry): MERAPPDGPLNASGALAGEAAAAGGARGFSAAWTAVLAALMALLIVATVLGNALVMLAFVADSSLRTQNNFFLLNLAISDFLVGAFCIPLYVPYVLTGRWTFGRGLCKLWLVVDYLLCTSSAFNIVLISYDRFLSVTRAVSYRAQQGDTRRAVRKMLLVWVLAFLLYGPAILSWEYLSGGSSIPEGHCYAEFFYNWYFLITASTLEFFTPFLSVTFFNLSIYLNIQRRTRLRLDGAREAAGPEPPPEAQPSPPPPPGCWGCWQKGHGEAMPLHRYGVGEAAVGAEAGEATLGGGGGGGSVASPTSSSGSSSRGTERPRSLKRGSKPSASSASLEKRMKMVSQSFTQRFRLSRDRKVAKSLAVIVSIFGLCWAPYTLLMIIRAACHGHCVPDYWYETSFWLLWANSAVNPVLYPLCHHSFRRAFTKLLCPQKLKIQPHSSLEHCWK
Sequence of Serotoninergic 5-HT2B (P41595 whole entry): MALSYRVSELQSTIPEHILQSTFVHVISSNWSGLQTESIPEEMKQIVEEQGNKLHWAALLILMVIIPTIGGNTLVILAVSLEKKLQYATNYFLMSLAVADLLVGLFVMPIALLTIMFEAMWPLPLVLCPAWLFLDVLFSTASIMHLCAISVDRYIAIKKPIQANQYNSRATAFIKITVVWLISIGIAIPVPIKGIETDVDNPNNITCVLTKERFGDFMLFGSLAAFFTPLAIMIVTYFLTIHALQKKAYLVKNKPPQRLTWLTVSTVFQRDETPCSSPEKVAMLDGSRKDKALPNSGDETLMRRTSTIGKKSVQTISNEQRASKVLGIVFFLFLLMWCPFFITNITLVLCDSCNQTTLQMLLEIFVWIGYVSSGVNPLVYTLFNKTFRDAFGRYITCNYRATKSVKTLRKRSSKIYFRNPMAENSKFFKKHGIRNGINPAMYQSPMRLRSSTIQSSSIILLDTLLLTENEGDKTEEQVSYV
Sequence of Histaminergic H1 (P35367 whole entry): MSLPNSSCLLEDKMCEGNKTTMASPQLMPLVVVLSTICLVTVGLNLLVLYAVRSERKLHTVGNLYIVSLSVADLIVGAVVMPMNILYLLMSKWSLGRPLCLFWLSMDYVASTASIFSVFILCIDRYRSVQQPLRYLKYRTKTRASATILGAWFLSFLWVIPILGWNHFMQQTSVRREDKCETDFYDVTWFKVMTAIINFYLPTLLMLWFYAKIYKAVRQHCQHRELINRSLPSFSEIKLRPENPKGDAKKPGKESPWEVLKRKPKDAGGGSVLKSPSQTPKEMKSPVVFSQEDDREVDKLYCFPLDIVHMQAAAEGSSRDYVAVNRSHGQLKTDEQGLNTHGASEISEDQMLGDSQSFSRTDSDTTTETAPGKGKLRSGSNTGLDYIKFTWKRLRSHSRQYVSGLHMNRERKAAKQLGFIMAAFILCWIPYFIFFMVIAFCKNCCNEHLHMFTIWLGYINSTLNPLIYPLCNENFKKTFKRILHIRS
Sequence of Serotoninergic 5-HT2A (P28223 whole entry): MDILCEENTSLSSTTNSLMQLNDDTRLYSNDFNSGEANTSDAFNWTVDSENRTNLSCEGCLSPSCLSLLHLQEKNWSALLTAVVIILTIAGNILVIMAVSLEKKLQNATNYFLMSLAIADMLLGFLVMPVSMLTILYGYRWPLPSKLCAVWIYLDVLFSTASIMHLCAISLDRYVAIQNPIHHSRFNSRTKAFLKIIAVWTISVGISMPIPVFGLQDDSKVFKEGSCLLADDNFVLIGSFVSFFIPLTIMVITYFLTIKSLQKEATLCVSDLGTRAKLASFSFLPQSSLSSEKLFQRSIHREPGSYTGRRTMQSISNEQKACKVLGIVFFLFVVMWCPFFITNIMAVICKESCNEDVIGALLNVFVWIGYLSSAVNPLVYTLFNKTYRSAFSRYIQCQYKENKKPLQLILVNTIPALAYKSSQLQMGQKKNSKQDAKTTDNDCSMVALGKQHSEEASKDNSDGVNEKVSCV

Compound | radio-labelled ligand displacement, Serotoninergic 5-HT2A (Serotoninergic 5-HT2A) | radio-labelled ligand displacement, Serotoninergic 5-HT2B (Serotoninergic 5-HT2B) | radio-labelled ligand displacement, Serotoninergic 5-HT6 (Serotoninergic 5-HT6) | grade of the activity profile (poor / satisfactory / good) [1] | radio-labelled ligand displacement, Dopaminergic D2L (Dopaminergic D2L) | radio-labelled ligand displacement, Adrenergic α1A (Adrenergic α1A) | radio-labelled ligand displacement, Histaminergic H1 (Histaminergic H1) | radio-labelled ligand displacement, Adrenergic α1D (Adrenergic α1D) | radio-labelled ligand displacement, Adrenergic α2A (Adrenergic α2A) | radio-labelled ligand displacement, Dopaminergic D3 (Dopaminergic D3) | radio-labelled ligand displacement, Serotoninergic 5-HT2C (Serotoninergic 5-HT2C) | radio-labelled ligand displacement, Dopaminergic D2S (Dopaminergic D2S) | radio-labelled ligand displacement, Histaminergic H3 (Histaminergic H3) | radio-labelled ligand displacement, Adrenergic α1B (Adrenergic α1B) | radio-labelled ligand displacement, Serotoninergic 5-HT7 (Serotoninergic 5-HT7) | radio-labelled ligand displacement, Dopaminergic D4.2 (Dopaminergic D4.2) | radio-labelled ligand displacement, Serotoninergic 5-HT1A (Serotoninergic 5-HT1A) | radio-labelled ligand displacement, Dopaminergic D1 (Dopaminergic D1) | radio-labelled ligand displacement, Histaminergic H2 (Histaminergic H2) | radio-labelled ligand displacement, Serotoninergic 5-HT1B (Serotoninergic 5-HT1B)
Cc1ccc(C=CCn2c3c(c4cc(C)sc42)CN(C)CC3)cc1 [3.11(2)•HCl, 2,5-dimethyl-8-[3-(p-tolyl)allyl]-4,5,6,7-tetrahydro-5H-thieno[3′,2′:4,5]pyrrolo[3,2-c]pyridine] | 93% | 89% | 95% | satisfactory | 50% | 55% | 81% | 42% | 53% | 49% | 93% | 61% | 7 | 60% | 85% | 13% | 21% | 10% | 50% | 39%
CN1CCc2c(c3cc(Cl)sc3n2CCCc2cccc(F)c2)C1 [3.12(6)•HCl, 5-methyl-8-[(3-fluorophenyl)propyl]-2-chloro-4,5,6,7-tetrahydro-5H-thieno[3′,2′:4,5]pyrrolo[3,2-c]pyridine] | 97% | 91% | 84% | good | 81% | 84% | 97% | 83% | 91% | 69% | 98% | 77% | −1 | 96% | 95% | 68% | 50% | 63% | 91% | 43%
Cc1cc2c3c(n(CC(O)c4ccccc4)c2s1)CCN(C)C3.Cl (centres unmarked) [3.7(1)•HCl, 2-(2,5-Dimethyl-4,5,6,7-tetrahydro-5H-thieno[3′,2′:4,5]pyrrolo[3,2-c]pyridin-8-yl)-1-phenylethanol hydrochloride] | 97% | 63% | 99% | – | 35% | 79% | 89% | 86% | 91% | 23% | 94% | 29% | −3 | 89% | 96% | 33% | 18% | 47% | 57% | 30%
